Positions of bridges follow the written chain, without caps; N, C: chain ends. Non-standard residues stand in square brackets, D forms with d. Residues, ends and D or L forms follow the SMILES beside them. ξ: configuration not given here. NMeF = CN[C@@H](Cc1ccccc1)C(=O)O; ξY = NC(Cc1ccc(O)cc1)C(=O)O; NMeA = CN[C@@H](C)C(=O)O
Molecular target: T1, human ROR1 (Homo sapiens, UniProt Q01973)
T1 construct: host or cells: HEK 293T cells, Tet-on system induced with doxycycline
Assay: ROR1 high content cell-based binding assay
Conditions: read-out: ROR1 Binding 293T Human HC Cell Based Assay IC50
Summary of the method: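 Doxycycline-induced 293T cells expressing human ROR1, seeded overnight, were treated with compound plus 5-FAM-labeled ROR1-binding probe peptide (30 nM final) for 1 h at 37 °C. After washing and formaldehyde/Hoechst fixation, cell-bound probe fluorescence was read by high-content imaging.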

T1 sequence (Q01973 30-937): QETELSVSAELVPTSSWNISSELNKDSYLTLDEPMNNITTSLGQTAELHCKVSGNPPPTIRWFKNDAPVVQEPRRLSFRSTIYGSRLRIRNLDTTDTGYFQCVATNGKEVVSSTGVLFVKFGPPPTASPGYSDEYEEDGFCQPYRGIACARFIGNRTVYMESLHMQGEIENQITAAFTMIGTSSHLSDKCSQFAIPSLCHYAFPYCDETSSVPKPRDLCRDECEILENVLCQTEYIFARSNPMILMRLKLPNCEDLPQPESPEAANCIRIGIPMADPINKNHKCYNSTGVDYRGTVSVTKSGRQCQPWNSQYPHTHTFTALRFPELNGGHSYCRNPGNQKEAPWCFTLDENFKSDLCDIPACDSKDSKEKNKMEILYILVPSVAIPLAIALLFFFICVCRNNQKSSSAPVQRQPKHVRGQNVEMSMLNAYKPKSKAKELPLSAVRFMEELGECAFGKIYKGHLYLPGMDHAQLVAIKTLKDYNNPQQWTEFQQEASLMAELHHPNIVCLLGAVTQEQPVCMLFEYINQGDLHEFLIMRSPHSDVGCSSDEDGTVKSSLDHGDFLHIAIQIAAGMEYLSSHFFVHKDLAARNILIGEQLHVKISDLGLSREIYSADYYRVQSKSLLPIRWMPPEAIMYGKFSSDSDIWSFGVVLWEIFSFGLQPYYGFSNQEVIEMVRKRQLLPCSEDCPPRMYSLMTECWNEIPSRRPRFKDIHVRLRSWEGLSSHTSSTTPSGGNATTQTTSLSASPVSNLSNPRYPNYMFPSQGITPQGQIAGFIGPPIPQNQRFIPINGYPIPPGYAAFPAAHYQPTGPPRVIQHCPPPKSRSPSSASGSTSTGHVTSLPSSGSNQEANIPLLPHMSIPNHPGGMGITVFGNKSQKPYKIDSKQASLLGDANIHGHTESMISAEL

Row | Structure (SMILES) | IC50 [nM]
1 | CC(C)C[C@@H]1NC(=O)[C@H](Cc2ccc(O)cc2)NC(=O)[C@H](Cc2ccccc2)NC(=O)CSC[C@@H](C(=O)NCC(N)=O)NC(=O)[C@H](CC(C)C)NC(=O)[C@H](Cc2ccccc2)N(C)C(=O)[C@H](Cc2ccc(O)cc2)NC(=O)[C@H](Cc2c[nH]c3ccccc23)NC(=O)[C@H](CCC(=O)O)NC(=O)[C@H](CO)NC(=O)[C@H](Cc2ccc(O)cc2)NC(=O)[C@H](C(C)C)NC1=O [Example 1053] ({CH2CO}-FYLVYSEWY[NMeF]LCG-NH2; thioether N-12) | 760
2 | CC(C)C[C@@H]1NC(=O)[C@H](Cc2ccc(O)cc2)NC(=O)[C@H](Cc2ccccc2)NC(=O)CSC[C@@H](C(=O)NCC(N)=O)NC(=O)[C@H](CC(C)C)NC(=O)[C@H](Cc2ccccc2)N(C)C(=O)[C@H](Cc2ccc(O)cc2)NC(=O)[C@H](Cc2c[nH]c3ccccc23)NC(=O)CNC(=O)[C@H](Cc2c[nH]c3ccccc23)NC(=O)[C@H](CCCNC(=N)N)NC(=O)[C@H](C(C)C)NC1=O [Example 1054] ({CH2CO}-FYLVRWGWY[NMeF]LCG-NH2; thioether N-12) | 35
3 | CC(C)C[C@@H]1NC(=O)[C@H](Cc2ccc(O)cc2)NC(=O)[C@H](Cc2ccccc2)NC(=O)CSC[C@@H](C(=O)NCC(N)=O)NC(=O)[C@H](CC(C)C)NC(=O)[C@H](Cc2ccccc2)N(C)C(=O)[C@H](Cc2ccc(O)cc2)NC(=O)[C@H](Cc2c[nH]c3ccccc23)NC(=O)CNC(=O)[C@H](Cc2ccc(O)cc2)NC(=O)[C@H](CCCNC(=N)N)NC(=O)[C@H](C(C)C)NC1=O [Example 1055] ({CH2CO}-FYLVRYGWY[NMeF]LCG-NH2; thioether N-12) | 29
4 | CC(C)C[C@@H]1NC(=O)[C@H](Cc2ccc(O)cc2)NC(=O)[C@H](Cc2ccccc2)NC(=O)CSC[C@@H](C(=O)NCC(N)=O)NC(=O)[C@H](CC(C)C)NC(=O)[C@H](Cc2ccccc2)N(C)C(=O)[C@H](Cc2ccc(O)cc2)NC(=O)[C@H](Cc2c[nH]c3ccccc23)NC(=O)[C@H](CCCCN)NC(=O)[C@H](CO)NC(=O)[C@H](Cc2ccc(O)cc2)NC(=O)[C@H](C(C)C)NC1=O [Example 1056] ({CH2CO}-FYLVYSKWY[NMeF]LCG-NH2; thioether N-12) | 740
5 | CC(C)C[C@@H]1NC(=O)[C@H](Cc2ccccc2)N(C)C(=O)[C@H](Cc2ccc(O)cc2)NC(=O)[C@H](Cc2c[nH]c3ccccc23)NC(=O)CNC(=O)[C@H](CO)NC(=O)[C@H](Cc2ccc(O)cc2)NC(=O)[C@H](C(C)C)NC(=O)[C@H](C)N(C)C(=O)[C@H](Cc2ccc(O)cc2)NC(=O)[C@H](Cc2ccccc2)NC(=O)CSC[C@@H](C(=O)NCC(N)=O)NC1=O [Example 1062] ({CH2CO}-FY[NMeA]VYSGWY[NMeF]LCG-NH2; thioether N-12) | 20
6 | CC(C)C[C@@H]1NC(=O)[C@H](Cc2ccc(O)cc2)NC(=O)[C@H](Cc2ccccc2)NC(=O)CSC[C@@H](C(=O)NCC(N)=O)NC(=O)[C@H](C)N(C)C(=O)[C@H](Cc2ccccc2)N(C)C(=O)[C@H](Cc2ccc(O)cc2)NC(=O)[C@H](Cc2c[nH]c3ccccc23)NC(=O)CNC(=O)[C@H](CO)NC(=O)[C@H](Cc2ccc(O)cc2)NC(=O)[C@H](C(C)C)NC1=O [Example 1064] ({CH2CO}-FYLVYSGWY[NMeF][NMeA]CG-NH2; thioether N-12) | 199
7 | CC(C)C[C@@H]1NC(=O)[C@H](Cc2ccc(O)cc2)NC(=O)[C@H](Cc2ccccc2)NC(=O)CSC[C@@H](C(=O)NCC(N)=O)NC(=O)CNC(=O)[C@H](Cc2ccccc2)N(C)C(=O)[C@H](Cc2ccc(O)cc2)NC(=O)[C@H](Cc2c[nH]c3ccccc23)NC(=O)CNC(=O)[C@H](CO)NC(=O)[C@H](Cc2ccc(O)cc2)NC(=O)[C@H](C(C)C)NC1=O [Example 1065] ({CH2CO}-FYLVYSGWY[NMeF]GCG-NH2; thioether N-12) | 22
8 | CC(C)C[C@@H]1NC(=O)[C@H](Cc2ccccc2)N(C)C(=O)[C@H](Cc2ccc(O)cc2)NC(=O)[C@H](Cc2c[nH]c3ccccc23)NC(=O)CNC(=O)[C@H](CO)NC(=O)[C@H](Cc2ccc(O)cc2)NC(=O)[C@H](C(C)C)NC(=O)[C@@H]2CCCN2C(=O)[C@H](Cc2ccc(O)cc2)NC(=O)[C@H](Cc2ccccc2)NC(=O)CSC[C@@H](C(=O)NCC(N)=O)NC1=O [Example 1066] ({CH2CO}-FYPVYSGWY[NMeF]LCG-NH2; thioether N-12) | 5

Second part, the compound after the results:

Row | IC50 [nM] | Structure (SMILES)
9 | 755 | CC(C)C[C@@H]1NC(=O)[C@H](Cc2ccccc2)NC(=O)CSC[C@@H](C(=O)NCC(N)=O)NC(=O)[C@H](CC(C)C)NC(=O)[C@H](Cc2ccccc2)N(C)C(=O)[C@H](Cc2ccc(O)cc2)NC(=O)[C@H](Cc2c[nH]c3ccccc23)NC(=O)CNC(=O)[C@H](CO)NC(=O)[C@H](Cc2ccc(O)cc2)NC(=O)[C@H](C(C)C)NC(=O)[C@H](Cc2c[nH]c3ccccc23)NC1=O [Example 1058] ({CH2CO}-FLWVYSGWY[NMeF]LCG-NH2; thioether N-12)
10 | 93 | CC(C)C[C@@H]1NC(=O)[C@H](Cc2ccc(O)cc2)NC(=O)[C@H](Cc2ccccc2)NC(=O)CSC[C@@H](C(=O)NCC(N)=O)NC(=O)[C@H](CC(C)C)NC(=O)[C@H](Cc2ccccc2)N(C)C(=O)C(Cc2ccc(O)cc2)NC(=O)[C@H](Cc2c[nH]c3ccccc23)NC(=O)[C@@H](C)NC(=O)[C@H](CO)NC(=O)[C@H](Cc2ccc(O)cc2)NC(=O)[C@H](C(C)C)NC1=O (some centres unmarked) [Example 1059] ({CH2CO}-FYLVYS[dA]W[ξY][NMeF]LCG-NH2; thioether N-12)
11 | 30 | CC(C)C[C@@H]1NC(=O)[C@H](Cc2ccc(O)cc2)NC(=O)[C@H](Cc2ccccc2)NC(=O)CSC[C@@H](C(=O)NCC(N)=O)NC(=O)[C@H](CC(C)C)NC(=O)[C@H](Cc2ccccc2)N(C)C(=O)[C@H](Cc2ccc(O)cc2)NC(=O)[C@H](Cc2c[nH]c3ccccc23)NC(=O)CNC(=O)[C@H](CO)NC(=O)[C@@H](C)NC(=O)[C@H](C(C)C)NC1=O [Example 1060] ({CH2CO}-FYLV[dA]SGWY[NMeF]LCG-NH2; thioether N-12)
12 | 645 | CC(C)C[C@@H]1NC(=O)[C@H](Cc2ccc(O)cc2)NC(=O)[C@H](Cc2ccccc2)NC(=O)CSC[C@@H](C(=O)NCC(N)=O)NC(=O)[C@@H](C)NC(=O)[C@H](Cc2ccccc2)N(C)C(=O)[C@H](Cc2ccc(O)cc2)NC(=O)[C@H](Cc2c[nH]c3ccccc23)NC(=O)CNC(=O)[C@H](CO)NC(=O)[C@H](Cc2ccc(O)cc2)NC(=O)[C@H](C(C)C)NC1=O [Example 1061] ({CH2CO}-FYLVYSGWY[NMeF][dA]CG-NH2; thioether N-12)
13 | 576 | CC(C)C[C@@H]1NC(=O)[C@H](Cc2ccc(O)cc2)NC(=O)[C@H](C)N(C)C(=O)CSC[C@@H](C(=O)NCC(N)=O)NC(=O)[C@H](CC(C)C)NC(=O)[C@H](Cc2ccccc2)N(C)C(=O)[C@H](Cc2ccc(O)cc2)NC(=O)[C@H](Cc2c[nH]c3ccccc23)NC(=O)CNC(=O)[C@H](CO)NC(=O)[C@H](Cc2ccc(O)cc2)NC(=O)[C@H](C(C)C)NC1=O [Example 1063] ({CH2CO}-[NMeA]YLVYSGWY[NMeF]LCG-NH2; thioether N-12)
14 | 515 | CC(C)C[C@@H]1NC(=O)[C@H](Cc2ccc(O)cc2)NC(=O)[C@@H]2CCCN2C(=O)CSC[C@@H](C(=O)NCC(N)=O)NC(=O)[C@H](CC(C)C)NC(=O)[C@H](Cc2ccccc2)N(C)C(=O)[C@H](Cc2ccc(O)cc2)NC(=O)[C@H](Cc2c[nH]c3ccccc23)NC(=O)CNC(=O)[C@H](CO)NC(=O)[C@H](Cc2ccc(O)cc2)NC(=O)[C@H](C(C)C)NC1=O [Example 1067] ({CH2CO}-PYLVYSGWY[NMeF]LCG-NH2; thioether N-12)
